Molecular target: T1, human calcitonin-2 receptor (hCT2R) (Homo sapiens, UniProt P30988)
T1 construct: expressed in transfected cells; host or cells: Chinese hamster ovary (CHO) cells co-transfected with a 6CRE-luciferase reporter; receptor cDNA cloned from the MCF7 cell line
T1 sequence (P30988 25-474): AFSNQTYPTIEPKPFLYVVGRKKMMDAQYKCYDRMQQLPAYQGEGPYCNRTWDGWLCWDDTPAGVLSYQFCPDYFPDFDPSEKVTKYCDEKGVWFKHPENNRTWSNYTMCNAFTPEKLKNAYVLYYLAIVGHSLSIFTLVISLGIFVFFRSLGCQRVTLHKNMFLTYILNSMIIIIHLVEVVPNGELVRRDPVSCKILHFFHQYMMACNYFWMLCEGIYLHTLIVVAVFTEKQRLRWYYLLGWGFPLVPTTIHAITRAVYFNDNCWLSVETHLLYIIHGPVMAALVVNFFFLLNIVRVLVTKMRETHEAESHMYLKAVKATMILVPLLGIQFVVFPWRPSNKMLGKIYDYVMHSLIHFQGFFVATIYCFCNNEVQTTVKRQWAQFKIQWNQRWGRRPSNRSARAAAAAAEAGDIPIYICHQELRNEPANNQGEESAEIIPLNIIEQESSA
Experiment: HCT2R CRE-luc reporter assay
Format: cell-based
Settings: agonist activity; CHO-6CRE-luciferase cells co-transfected with hCT2R
Procedure: The compounds of the present invention elicit important and measurable pharmacological responses. As is to be expected, the efficacy of any compound will vary depending upon the particular assay and the particular compound tested.
All recombinant cell line human calcitonin receptor assays were carried out with the human receptor corresponding to GeneBank Accession Number X69920, [See: Molecular Pharmacology 46 (2):246–255, 1994, Cloning and characterization of an abundant subtype of the human calcitonin receptor] cloned from the MCF7 cell line (American Type Tissue Collection, Manassas, Va., USA, Catalog # HTB-22). Human calcitonin receptor (hCT2R) was cloned as a HindIII fragment into plasmid BS SKII. Chinese hamster ovary cells were co-transfected with a 6CRE-luciferase reporter system and hCTR2. HEK cells were transfected with hCTR2.
CHO-6CRE-luciferase cells with or without co-expressed hCTR2 were grown in suspension in commercially available cell culture medium supplemented with 2 mM L-glutamine and 5% fetal bovine serum (FBS). Sixteen hours before each assay, cells were collected and resuspended at 1,000,000 cells/ml in media without FBS. Cells were cultured in spinner flasks at 37° C. in an atmosphere of 5% CO2. At the time of the assay, cells were pelleted by centrifugation and resuspended in media without FBS at a concentration of 250,000 cells/ml. The cell suspension was pipetted into black 96-well microtiter plates (25,000 cells/well) containing test compounds. After a four-hour incubation at 37° C., media was aspirated, followed by addition of 50 microliters of LucLite and PBS (1:1) containing 1 mM CaCl2 and 1 mM MgCl2. The plates were sealed and incubated for 20 minutes in the dark. Luminescent responses were measured using a Packard TopCount.
Structure activity studies were performed on CHO-6CRE-luciferase cells with or without co-transfected hCT2R. Forty-eight hours before each assay, cells were removed with trypsin and plated in 96-well microtiter plates at a concentration of 25–100,000 cells/well. Sixteen hours before each assay, FBS-containing media was removed and replaced with media without FBS. Compounds were added and incubated for four hours at 37° C. After incubation, media was aspirated and 50 microliters of LucLite in PBS (1:1) containing 1 mM CaCl2 and 1 mM MgCl2 were added to each well. Plates were sealed and incubated for 20 minutes in the dark before quantification of luminescence on a Packard TopCount.
Concentration-response curves were calculated and potencies were reported as the concentration of compounds producing half-maximal responses (EC50) or the negative log of the concentration of compounds producing half-maximal responses (pEC50).

| EC50 | SMILES |
| --- | --- |
| 100 to 1000 nM | CCOC(=O)c1c(CCc2ccc(C(F)(F)F)cc2)nc2c(c1C1CC1C(=O)NCc1ccccc1)C(=O)N1CCC[C@@H]21 (stereo partly drawn) [Example 3, Ethyl (9aS)-4-{2-[(benzylamino)carbonyl]cyclopropyl}-5-oxo-2-{2-[4-(trifluoromethyl)phenyl]ethyl}-7,8,9,9a-tetrahydro-5H-pyrido[2,3-a]pyrrolizine-3-carboxylate] |
| 10 to 100 nM | CCOC(=O)c1c(Cc2ccc(F)cc2F)nc2c(c1-c1ccc(C(=O)NCc3ccco3)cc1)C(=O)N1CCC[C@@H]21 [Example 6, Ethyl (9aS)-2-(2,4-difluorobenzyl)-4-(4-{[(2-furylmethyl)amino]carbonyl}phenyl)-5-oxo-7,8,9,9a-tetrahydro-5H-pyrido[2,3-α]pyrrolizine-3-carboxylate] |
| ≤ 10 nM | CCOC(=O)c1c(CCc2ccc(F)cc2)nc2c(c1-c1ccc(C(=O)NCc3ccco3)cc1)c(=O)n1n2CCC1 [Example 8, Ethyl 2-[2-(4-fluorophenyl)ethyl]-4-(4-{[(2-furylmethyl)amino]carbonyl}phenyl)-5-oxo-8,9-dihydro-5H,7H-pyrazolo[1′,2′:1,2]pyrazolo[3,4-b]pyridine-3-carboxylate] |
| ≤ 10 nM | CCOC(=O)c1c(CCc2ccc(F)cc2)nc2c(c1-c1ccc(C(=O)NCc3ccco3)s1)c(=O)n1n2CCC1 [Example 9, Ethyl 2-[2-(4-fluorophenyl)ethyl]-4-(5-{[(2-furylmethyl)amino]carbonyl}-2-thienyl)-5-oxo-8,9-dihydro-5H,7H-pyrazolo[1′,2′:1,2]pyrazolo[3,4-b]pyridine-3-carboxyl] |
| ≥ 1000 nM | CCOC(=O)c1c(C(F)(F)F)nc2c(c1-c1ccc(C(=O)NCc3cccc(F)c3)cc1)c(=O)n1n2CCC1 [Example 10, Ethyl 4-(4-{[(3-fluorobenzyl)amino]carbonyl}phenyl)-5-oxo-2-(trifluoromethyl)-8,9-dihydro-5H,7H-pyrazolo[1′,2′:1,2]pyrazolo[3,4-b]pyridine-3-carboxylate] |
| 100 to 1000 nM | O=C(NCc1ccco1)c1ccc(-c2cc(CCc3ccc(C(F)(F)F)cc3)nc3c2C(=O)N2CCC[C@@H]32)cc1 [Example 14, 4-((9aS)-5-oxo-2-{2-[4-(trifluromethyl)phenyl]ethyl}-7,8,9,9a-tetrahydro-5H-pyrido[2,3-a]pyrrolizin-4-yl)-N-(2-furylmethyl)benzamide] |
| ≤ 10 nM | CCOC(=O)c1c(CCc2ccc(F)cc2)nc2c(c1-c1cc(C(=O)NC3CCc4ccccc43)cs1)C(=O)N1CCC[C@@H]21 (stereo partly drawn) [Example 15, Ethyl(9aS)-4-{4-[(2,3-dihydro-1H-inden-1-ylamino)carbonyl]-2-thieny}-2-[2-(4-fluorophenyl)ethyl]-5-oxo-7,8,9,9a-tetrahydro-5H-pyrido[2,3-a]pyrrolizine-3-carboxylate] |
| ≤ 10 nM | CCOC(=O)c1c(CCc2ccc(F)cc2)nc2c(c1-c1cc(C(=O)NC3CCc4ccccc43)co1)C(=O)N1CCC[C@@H]21 (stereo partly drawn) [Example 17, Ethyl(9aS)-4-{4-[(2,3-dihydro-1H-inden-1-ylamino)carbonyl]-2-furyl}-2-[2-(4-fluorophenyl)ethyl]-5-oxo-7,8,9,9a-tetrahydro-5H-pyrido[2,3-a]pyrrolizine-3-carboxylate] |
| ≤ 10 nM | CCOC(=O)c1c(CCc2ccc(F)cc2)nc2c(c1-c1ccc(C(=O)N[C@@H]3CCc4ccccc43)s1)C(=O)N1CCC[C@@H]21 [Example 18, Ethyl(9aS)-4-(5-{[(1R)-2,3-dihydro-1H-inden-1-ylamino]carbonyl}-2-thienyl)-2-[2-(4-fluorophenyl)ethyl]-5-oxo-7,8,9,9a-tetrahydro-5H-pyrido[2,3-a]pyrrolizine-3-carboxylate] |
| ≤ 10 nM | CCOC(=O)c1c(Cc2ccc(F)cc2)nc2c(c1-c1ncc(C(=O)N[C@@H]3CCc4ccccc43)s1)C(=O)N1CCC[C@@H]21 [Example 19, Ethyl (9aS)-4-(5-{[(1R)-2,3-dihydro-1H-inden-1-ylamino]carbonyl}-1,3-thiazol-2-yl)-2-(4-fluorobenzyl)-5-oxo-7,8,9,9a-tetrahydro-5H-pyrido[2,3-a]pyrrolizine-3-carboxylate] |
| 10 to 100 nM | O=C(N[C@@H]1CCc2ccccc21)c1ccc(-c2cc(Cc3ccc(F)cc3)nc3c2C(=O)N2CCC[C@@H]32)cc1 [Example 20, 4-[(9aS)-2-(4-fluorobenzyl)-5-oxo-7,8,9,9a-tetrahydro-5H-pyrido[2,3-a]pyrrolizin-4-yl]-N-[(1R)-2,3-dihdro-1H-inden-1-yl]benzamide] |
| 10 to 100 nM | CCOC(=O)c1c(CCc2ccc(C(F)(F)F)cc2)nc2c(c1-c1nc(C(=O)N[C@@H]3CCc4ccccc43)co1)c(=O)n1n2CCC1 [Example 21, Ethyl 4-(4-{[(1R)-2,3-dihydro-1H-inden-1-ylamino]carbonyl}-1,3-oxazol-2-yl)-5-oxo-2-{2-[4-(trifluoromethyl)phenyl]ethyl}-8,9-dihydro-5H,7H-pyrazolo[1′, 2′:1,2]pyrazolo[3,4-b]pyridine-3-carboxylate] |
| 10 to 100 nM | CCOC(=O)c1c(Cc2ccc(F)cc2F)nc2c(c1-c1cnc(C(=O)N[C@@H]3CCc4ccccc43)cn1)C(=O)N1CCC[C@@H]21 [Example 22, Ethyl(9aS)-2-(2,4-difluorobenzyl)-4-(5-{[(1R)-2,3-dihydro-1H-inden-1-ylamino]carbonyl}-2-pyrazinyl)-5-oxo-7,8,9,9a-tetrahydro-5H-pyrido[2,3-a]pyrrolizine-3-carboxylate] |
| 10 to 100 nM | O=C(NC1CCc2ccccc21)c1ccc(-c2c(NC(=O)C(F)(F)F)c(Cc3ccc(F)cc3F)nc3c2C(=O)N2CCCC32)cc1 [Example 23, 4-{(9aS)-2-(2,4-difluorobenzyl)-5-oxo-3-[(trifluoroacetyl)amino]-7,8,9,9a-tetrahydro-5H-pyrido[2,3-α]pyrrolizin-4-yl}-N-[(1R)-2,3-dihydro-1H-inden-1-yl]benzamide] |
| 100 to 1000 nM | O=C(NCc1ccco1)c1ccc(-c2c(NC(=O)C3CCCC3)c(CCc3ccc(C(F)(F)F)cc3)nc3c2C(=O)N2CCC[C@@H]32)cc1 [Example 24, 4-((9aS)-3-[(Cyclopentylcarbonyl)amino]-5-oxo-2-{2-[4-(trifluoromethyl)phenyl]ethyl}-7,8,9,9a-tetrahydro-5H-pyrido[2,3-a]pyrrolizin-4-yl)-N-(2-furylmethyl)benzamide] |
| 100 to 1000 nM | CCC(=O)Nc1c(CCc2ccc(C(F)(F)F)cc2)nc2c(c1-c1ccc(C(=O)NCc3ccco3)cc1)C(=O)N1CCC[C@@H]21 [Example 25, 4-((9aS)-3-[(Ethylcarbonyl)amino]-5-oxo-2-{2-[4-(trifluoromethyl)phenyl]ethyl}-7,8,9,9a-tetrahydro-5H-pyrido[2,3-α]pyrrolizin-4-yl)-N-(2-furylmethyl)benzamide] |
| 100 to 1000 nM | O=C(NCc1ccco1)c1ccc(-c2c(NC(=O)C3CC3)c(CCc3ccc(C(F)(F)F)cc3)nc3c2C(=O)N2CCC[C@@H]32)cc1 [Example 26, 4-((9aS)-3-[(Cyclopropylcarbonyl)amino]-5-oxo-2-{2-[4-(trifluoromethyl)phenyl]ethyl}-7,8,9,9a-tetrahydro-5H-pyrido[2,3-α]pyrrolizin-4-yl)-N-(2-furylmethyl)benzamide] |
| 100 to 1000 nM | O=C(NCc1ccco1)c1ccc(-c2c(NC(=O)C(F)(F)F)c(CCc3ccc(C(F)(F)F)cc3)nc3c2C(=O)N2CCC[C@@H]32)cc1 [Example 27, 4-((9aS)-3-[(Trifluoromethylcarbonyl)amino]-5-oxo-2-{2-[4-(trifluoromethyl)phenyl]ethyl}-7,8,9,9a-tetrahydro-5H-pyrido[2,3-α]pyrrolizin-4-yl)-N-(2-furylmethyl)benzamide] |

| SMILES | EC50 |
| --- | --- |
| CCOC(=O)c1c(CCc2ccc(OC)cc2)nc2c(c1-c1ccc(C(=O)NCc3ccco3)cc1)C(=O)N1CCC[C@H]21 [Example 1, Ethyl (9aR)-4-(4-{[(2-furylmethyl)amino]carbonyl}phenyl)-2-[2-(4-methoxyphenyl)ethyl]-5-oxo-7,8,9,9a-tetrahydro-5H-pyrido[2,3-α]pyrrolizine-3-carboxylate] | 10 to 100 nM |
